5 compounds from PMC11992225, “Antibacterial compounds against non-growing and intracellular bacteria” (npj Antimicrobials and Resistance, 2025) can be followed below.

In test [1] the test system is non-growing UPEC CFT073. As to the kind of experiment: Dilution-regrowth assay (screen, hit validation, dose-response) on stationary-phase UPEC. The format is cell-based, Escherichia coli. The conditions noted are these: for EC50: Escherichia coli; for activity against non-growing UPEC in LPM (pH 5.5) compared to 1:4 CA-MHB (pH 7.4): regrowth delay and killing, Figs. 2 and 3; for OD600 at 6hr, Mean: after dilution into drug-free medium; for Regrowth: OD600 after dilution into drug-free medium (mean): OD600 at 6h or 8h; for Regrowth, OD600 at 6h or 8h after dilution into drug-free medium: average. In short, it runs like this:
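Regrowth (OD600 after 6 h, 37 °C) of diluted non-growing CFT073, following 24 h compound treatment of 24 h stationary cultures, defines activity relative to untreated control. Screen at 20 µM, validation at 20, 10, 5 µM (duplicates), dose–response in three biological replicates fitted by five-parameter logistic.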

The subject of test [2] is S. flexneri 5a M90T. As to the kind of experiment: MIC in tryptic soy broth, S. flexneri. In kind it is cell-based, Shigella flexneri. The settings on record: for MIC: Shigella flexneri, 5AM90T, read-out: MIC (μM) TSB. The procedure, abridged:
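MICs come from microdilution in CA-MHB/40 mM HEPES pH 7.4 for the UPEC, Pseudomonas and Staphylococcus strains, and in TSB for Shigella. UPEC also tested in LPM/30 mM MES pH 5.5.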

[3] abbreviates: E. coli, pH 7.4, regrowth delay of non-growing bacteria, 1:4 CA-MHB, 24 h treatment, OD600 6 h after 2500-fold dilution, read-out: EC50.
Where [4] appears, read: E. coli in 1:4 CA-MHB (pH 7.4), drug concentration 10.
Where [5] appears, read: E. coli in 1:4 CA-MHB (pH 7.4), drug concentration 30.
The mark [6] stands for this setting: E. coli in LPM (pH 5.5), drug concentration 10.
Setting [7] is: E. coli in LPM (pH 5.5), drug concentration 30.
Where [8] appears, read: E. coli in 1:4 CA-MHB (pH 7.4), concentration 0.25.
Setting [9] is: E. coli in 1:4 CA-MHB (pH 7.4), concentration 0.5.
[10] abbreviates: E. coli in 1:4 CA-MHB (pH 7.4), concentration 1.
Setting [11] is: E. coli in 1:4 CA-MHB (pH 7.4), concentration 2.5.
[12] abbreviates: E. coli in 1:4 CA-MHB (pH 7.4), concentration 5.
[13] abbreviates: E. coli in LPM (pH 5.5), concentration 0.25.
The mark [14] stands for this setting: E. coli in LPM (pH 5.5), concentration 0.5.
The mark [15] stands for this setting: E. coli in LPM (pH 5.5), concentration 1.
The mark [16] stands for this setting: E. coli in LPM (pH 5.5), concentration 2.5.
The mark [17] stands for this setting: E. coli in LPM (pH 5.5), concentration 5.

Converted amounts (≈) assume the structure as drawn. Like-named read-outs stand apart in the source and are kept apart here.

A word on the EC50: it is the concentration that produces a half-maximal response. What is called MIC is the lowest concentration found to suppress growth. As for `C=C[C@]1(C)C[C@@H](OC(=O)CSC(C)(C)CNC(=O)[C@H](N)C(C)C)[C@]2(C)[C@H](C)CC[C@]3(CCC(=O)[C@H]32)[C@@H](C)[C@@H]1O` [Valnemulin], the EC50 in test [1] (setting [3]) came out at 373 nM. In addition, the “activity against non-growing UPEC in LPM (pH 5.5) compared to 1:4 CA-MHB (pH 7.4)” value in test [1] was “active at pH 7.4 and completely inactive in the acidic medium”. The minimal inhibitory concentration (MIC) in test [2] came to 16 µM (≈ 9.04 µg/mL).
As to Plicamycin, the “Regrowth, OD600 at 6h or 8h after dilution into drug-free medium (average)” value is reported as 0.612 in test [1] (E. coli in 1:4 CA-MHB (pH 7.4), drug concentration 0.25); 0.607 in test [1] (E. coli in 1:4 CA-MHB (pH 7.4), drug concentration 0.5); 0.618 in test [1] (E. coli in 1:4 CA-MHB (pH 7.4), drug concentration 1); 0.623 in test [1] (E. coli in 1:4 CA-MHB (pH 7.4), drug concentration 2.5); 0.619 in test [1] (E. coli in 1:4 CA-MHB (pH 7.4), drug concentration 5); 0.615 in test [1] (setting [4]). The “Regrowth, OD600 at 6h or 8h after dilution into drug-free medium (average)” value is given as 0.623 in test [1] (setting [5]); 0.574 in test [1] (E. coli in LPM (pH 5.5), drug concentration 0.25); 0.571 in test [1] (E. coli in LPM (pH 5.5), drug concentration 0.5); 0.572 in test [1] (E. coli in LPM (pH 5.5), drug concentration 1); 0.561 in test [1] (E. coli in LPM (pH 5.5), drug concentration 2.5); 0.562 in test [1] (E. coli in LPM (pH 5.5), drug concentration 5). The entries for the “Regrowth, OD600 at 6h or 8h after dilution into drug-free medium (average)” value in test [1] (setting [6]) and in test [1] (setting [7]) were 0.546 and 0.390, respectively. In test [1], the “activity against non-growing UPEC in LPM (pH 5.5) compared to 1:4 CA-MHB (pH 7.4)” value is listed as “potentiated by the low pH”. Also, in test [2] (S. flexneri, extracellular bacteria in TSB), the “MIC (μM) TSB” value is over 128 µM.
As for `CS[C@H]1SC[C@H]2C(=O)N(C)[C@@H](C(C)C)C(=O)OC[C@@H](NC(=O)c3cnc4ccccc4n3)C(=O)N[C@@H](C)C(=O)N(C)[C@@H]1C(=O)N(C)[C@@H](C(C)C)C(=O)OC[C@@H](NC(=O)c1cnc3ccccc3n1)C(=O)N[C@@H](C)C(=O)N2C` [Echinomycin], the “OD600 at 6hr, Mean” value is 0.627 in test [1] (E. coli in 1:4 CA-MHB (pH 7.4), 0.25 μM); 0.601 in test [1] (E. coli in 1:4 CA-MHB (pH 7.4), 0.5 μM); 0.561 in test [1] (E. coli in 1:4 CA-MHB (pH 7.4), 1 μM); 0.340 in test [1] (E. coli in 1:4 CA-MHB (pH 7.4), 2.5 μM); 0.110 in test [1] (E. coli in 1:4 CA-MHB (pH 7.4), 5 μM); 0.090 in test [1] (E. coli in 1:4 CA-MHB (pH 7.4), 10 μM). The “OD600 at 6hr, Mean” value in test [1] (E. coli in 1:4 CA-MHB (pH 7.4), 30 μM) was found to be 0.091; in test [1] (E. coli in LPM (pH 5.5), 0.25 μM), 0.602; in test [1] (E. coli in LPM (pH 5.5), 0.5 μM), 0.564; in test [1] (E. coli in LPM (pH 5.5), 1 μM) it was 0.465; in test [1] (E. coli in LPM (pH 5.5), 2.5 μM), 0.288; in test [1] (E. coli in LPM (pH 5.5), 5 μM), 0.215. The “OD600 at 6hr, Mean” value is reported as 0.181 in test [1] (E. coli in LPM (pH 5.5), 10 μM) and 0.160 in test [1] (E. coli in LPM (pH 5.5), 30 μM). The EC50 is 1530 nM in test [1] (pH 5.5); 1520 nM in test [1] (pH 5.5, read-out: EC50 (regrowth inhibition curve, Fig. S4)); 2400 nM in test [1] (pH 7.4); 2390 nM in test [1] (pH 7.4, read-out: EC50 (regrowth inhibition curve, Fig. S4)). In addition, in test [2], the MIC was 4 µM (≈ 4.41 µg/mL).
On to `CO[C@H]1/C=C/O[C@@]2(C)Oc3c(C)c(O)c4c(c3C2=O)C2=NC3(CCN(CC(C)C)CC3)NC2=C(NC(=O)/C(C)=C\C=C\[C@H](C)[C@H](O)[C@@H](C)[C@@H](O)[C@@H](C)[C@H](OC(C)=O)[C@@H]1C)C4=O` [Rifabutin], for which the “Regrowth: OD600 after dilution into drug-free medium (mean)” value came to 0.656 in test [1] (setting [8]); 0.633 in test [1] (setting [9]); 0.623 in test [1] (setting [10]); 0.617 in test [1] (setting [11]); 0.605 in test [1] (setting [12]); 0.612 in test [1] (E. coli in 1:4 CA-MHB (pH 7.4), concentration 10). The “Regrowth: OD600 after dilution into drug-free medium (mean)” value in test [1] (setting [13]) worked out at 0.569; in test [1] (setting [14]) it was 0.563; in test [1] (setting [15]), 0.555; in test [1] (setting [16]), 0.521; in test [1] (setting [17]) it was 0.497; in test [1] (E. coli in LPM (pH 5.5), concentration 10) it was 0.485. Besides, the MIC in test [2] is 32 µM (≈ 27.1 µg/mL).
Regarding `CCCCCCCCN=c1ccn(CCCCCCCCCCn2ccc(=NCCCCCCCC)cc2)cc1` [Octenidine], the “Regrowth, OD600 at 6h or 8h after dilution into drug-free medium” value in test [1] (setting [8]) is 0.612; in test [1] (setting [9]) it was 0.602; in test [1] (setting [10]) it was 0.603; in test [1] (setting [11]), 0.605; in test [1] (setting [12]), 0.549; in test [1] (setting [13]), 0.551. Besides, the “Regrowth, OD600 at 6h or 8h after dilution into drug-free medium” value came to 0.543 in test [1] (setting [14]), 0.551 in test [1] (setting [15]), 0.544 in test [1] (setting [16]) and 0.198 in test [1] (setting [17]). The “Regrowth, OD600 at 6h or 8h after dilution into drug-free medium (average)” value stood at 0.188 in test [1] (setting [4]), 0.074 in test [1] (setting [5]), 0.071 in test [1] (setting [6]) and 0.077 in test [1] (setting [7]). Also, the concentration for a half-maximal effect (EC50) in test [1] (1:4 CA-MHB pH 7.4 (black curve), medium assigned by comparison with Dataset 1, read-out: EC50 (regrowth inhibition curve, Fig. S4)) was 7950 nM; in test [1] (setting [3]), 7670 nM; in test [1] (LPM pH 5.5 (red curve), medium assigned by comparison with Dataset 1, read-out: EC50 (regrowth inhibition curve, Fig. S4)), 4410 nM. Also, in test [1], the “activity against non-growing UPEC in LPM (pH 5.5) compared to 1:4 CA-MHB (pH 7.4)” value is “potentiated by the low pH”.
